Peptide text beside a SMILES is read from it. * marks the point of attachment. Biotin = O=C1N[C@H]2[C@H](CS[C@H]2CCCCC(=O)*)N1
Columns and labels:
Test in all cases: G' assay (10 uM PL peptide), results of TABLE 7 and TABLE 12
Format in all cases: binding
[1] = biological target: T1, PDZ protein (GST-PDZ fusion) (Homo sapiens, UniProt Q8NI35); details: PDZ INADL
T1 construct: made in house; host or cells: E. coli (DH5alpha, BL21 or JM109)
In short: (§1)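 Biotinylated PL peptides at 10 uM (vs 20 uM in G^0 assay) bound to GST-PDZ fusions; PDZ protein at 5 ug/ml unless another concentration listed. Bound peptide read as A450 nm, classified 0–5 (0 = A450 0; 5 = A450 >4 repeated).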

[2] = biological target: T2, PDZ protein (GST-PDZ fusion) (Homo sapiens, UniProt P57105); details: PDZ Outer Membrane, PDZ Domain 1
T2 construct: made in house; host or cells: E. coli (DH5alpha, BL21 or JM109)
T2 sequence (P57105 1-145): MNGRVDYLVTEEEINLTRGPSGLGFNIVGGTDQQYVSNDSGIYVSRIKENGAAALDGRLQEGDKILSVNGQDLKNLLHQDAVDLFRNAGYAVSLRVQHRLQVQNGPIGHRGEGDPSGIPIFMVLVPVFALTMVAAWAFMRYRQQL
In short: as §1

[3] = biological target: T3, PDZ protein (GST-PDZ fusion) (Homo sapiens, UniProt Q9NZN5); details: PDZ KIAA0382, PDZ Domain 1
T3 construct: made in house; host or cells: E. coli (DH5alpha, BL21 or JM109)
In short: as §1

[4] = biological target: T4, PDZ protein (GST-PDZ fusion) (Homo sapiens, UniProt O15018)
T4 construct: made in house; host or cells: E. coli (DH5alpha, BL21 or JM109)
In short: as §1

[5] = biological target: T5, PDZ protein (GST-PDZ fusion) (Homo sapiens, UniProt Q92796); details: PDZ NeDLG
T5 construct: made in house; host or cells: E. coli (DH5alpha, BL21 or JM109)
T5 sequence (Q92796 1-817): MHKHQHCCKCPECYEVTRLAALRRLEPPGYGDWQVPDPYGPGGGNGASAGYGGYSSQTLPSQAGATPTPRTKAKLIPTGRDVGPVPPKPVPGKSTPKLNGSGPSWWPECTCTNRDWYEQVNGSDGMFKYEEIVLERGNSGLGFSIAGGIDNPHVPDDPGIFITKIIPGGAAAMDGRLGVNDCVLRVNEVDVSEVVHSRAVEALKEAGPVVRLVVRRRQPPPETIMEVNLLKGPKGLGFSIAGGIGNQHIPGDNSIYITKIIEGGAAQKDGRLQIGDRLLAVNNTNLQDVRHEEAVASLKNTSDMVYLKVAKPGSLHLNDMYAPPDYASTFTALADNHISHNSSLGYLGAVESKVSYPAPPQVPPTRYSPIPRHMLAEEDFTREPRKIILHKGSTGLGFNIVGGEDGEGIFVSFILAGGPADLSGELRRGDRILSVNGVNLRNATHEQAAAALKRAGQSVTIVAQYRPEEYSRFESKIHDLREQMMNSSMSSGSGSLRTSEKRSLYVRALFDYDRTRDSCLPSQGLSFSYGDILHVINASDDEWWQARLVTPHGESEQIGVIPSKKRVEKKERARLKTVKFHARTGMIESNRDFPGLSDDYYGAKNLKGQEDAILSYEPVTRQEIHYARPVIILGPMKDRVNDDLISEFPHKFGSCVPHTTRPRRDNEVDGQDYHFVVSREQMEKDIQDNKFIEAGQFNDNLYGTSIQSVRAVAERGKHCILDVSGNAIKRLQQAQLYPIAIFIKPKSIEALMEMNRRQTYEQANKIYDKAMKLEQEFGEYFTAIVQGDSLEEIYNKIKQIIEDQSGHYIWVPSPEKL
In short: as §1

[6] = biological target: T6, PDZ protein (GST-PDZ fusion) (Homo sapiens, UniProt Q15700)
T6 construct: made in house; host or cells: E. coli (DH5alpha, BL21 or JM109)
In short: as §1

[7] = biological target: T7, PDZ protein (GST-PDZ fusion) (Homo sapiens, UniProt P78352)
T7 construct: made in house; host or cells: E. coli (DH5alpha, BL21 or JM109)
In short: as §1

[8] = biological target: T8, PDZ protein (GST-PDZ fusion) (Homo sapiens, UniProt Q12959)
T8 construct: made in house; host or cells: E. coli (DH5alpha, BL21 or JM109)
In short: as §1

[9] = biological target: T9, PDZ protein (GST-PDZ fusion) (Homo sapiens, UniProt O14907); details: PDZ TIP1, PDZ Domain 1
T9 construct: made in house; host or cells: E. coli (DH5alpha, BL21 or JM109)
T9 sequence (O14907 1-124): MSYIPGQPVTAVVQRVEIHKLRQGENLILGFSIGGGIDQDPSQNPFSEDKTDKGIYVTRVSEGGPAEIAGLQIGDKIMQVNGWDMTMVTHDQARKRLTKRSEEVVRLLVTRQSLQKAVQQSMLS
In short: as §1

T7 sequence (P78352 whole entry, the tested form may be a part): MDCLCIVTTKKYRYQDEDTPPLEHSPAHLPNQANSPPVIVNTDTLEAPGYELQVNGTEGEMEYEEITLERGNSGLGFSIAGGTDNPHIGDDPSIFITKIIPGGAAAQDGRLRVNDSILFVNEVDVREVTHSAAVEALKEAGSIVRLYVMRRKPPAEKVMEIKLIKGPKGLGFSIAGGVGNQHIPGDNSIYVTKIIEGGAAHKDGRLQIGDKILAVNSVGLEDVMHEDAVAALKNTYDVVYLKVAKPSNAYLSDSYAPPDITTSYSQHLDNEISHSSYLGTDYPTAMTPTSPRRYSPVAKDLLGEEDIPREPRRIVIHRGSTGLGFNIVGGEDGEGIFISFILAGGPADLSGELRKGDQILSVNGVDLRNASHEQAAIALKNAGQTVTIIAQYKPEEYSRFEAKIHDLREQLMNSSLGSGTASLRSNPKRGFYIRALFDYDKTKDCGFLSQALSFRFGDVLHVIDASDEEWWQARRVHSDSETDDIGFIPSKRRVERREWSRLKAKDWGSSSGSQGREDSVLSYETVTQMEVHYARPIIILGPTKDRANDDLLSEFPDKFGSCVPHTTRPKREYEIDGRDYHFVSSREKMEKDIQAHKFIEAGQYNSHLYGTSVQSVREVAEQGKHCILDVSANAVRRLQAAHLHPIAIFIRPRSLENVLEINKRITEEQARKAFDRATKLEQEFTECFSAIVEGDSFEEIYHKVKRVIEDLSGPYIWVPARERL
T3 sequence (Q9NZN5 whole entry, the tested form may be a part): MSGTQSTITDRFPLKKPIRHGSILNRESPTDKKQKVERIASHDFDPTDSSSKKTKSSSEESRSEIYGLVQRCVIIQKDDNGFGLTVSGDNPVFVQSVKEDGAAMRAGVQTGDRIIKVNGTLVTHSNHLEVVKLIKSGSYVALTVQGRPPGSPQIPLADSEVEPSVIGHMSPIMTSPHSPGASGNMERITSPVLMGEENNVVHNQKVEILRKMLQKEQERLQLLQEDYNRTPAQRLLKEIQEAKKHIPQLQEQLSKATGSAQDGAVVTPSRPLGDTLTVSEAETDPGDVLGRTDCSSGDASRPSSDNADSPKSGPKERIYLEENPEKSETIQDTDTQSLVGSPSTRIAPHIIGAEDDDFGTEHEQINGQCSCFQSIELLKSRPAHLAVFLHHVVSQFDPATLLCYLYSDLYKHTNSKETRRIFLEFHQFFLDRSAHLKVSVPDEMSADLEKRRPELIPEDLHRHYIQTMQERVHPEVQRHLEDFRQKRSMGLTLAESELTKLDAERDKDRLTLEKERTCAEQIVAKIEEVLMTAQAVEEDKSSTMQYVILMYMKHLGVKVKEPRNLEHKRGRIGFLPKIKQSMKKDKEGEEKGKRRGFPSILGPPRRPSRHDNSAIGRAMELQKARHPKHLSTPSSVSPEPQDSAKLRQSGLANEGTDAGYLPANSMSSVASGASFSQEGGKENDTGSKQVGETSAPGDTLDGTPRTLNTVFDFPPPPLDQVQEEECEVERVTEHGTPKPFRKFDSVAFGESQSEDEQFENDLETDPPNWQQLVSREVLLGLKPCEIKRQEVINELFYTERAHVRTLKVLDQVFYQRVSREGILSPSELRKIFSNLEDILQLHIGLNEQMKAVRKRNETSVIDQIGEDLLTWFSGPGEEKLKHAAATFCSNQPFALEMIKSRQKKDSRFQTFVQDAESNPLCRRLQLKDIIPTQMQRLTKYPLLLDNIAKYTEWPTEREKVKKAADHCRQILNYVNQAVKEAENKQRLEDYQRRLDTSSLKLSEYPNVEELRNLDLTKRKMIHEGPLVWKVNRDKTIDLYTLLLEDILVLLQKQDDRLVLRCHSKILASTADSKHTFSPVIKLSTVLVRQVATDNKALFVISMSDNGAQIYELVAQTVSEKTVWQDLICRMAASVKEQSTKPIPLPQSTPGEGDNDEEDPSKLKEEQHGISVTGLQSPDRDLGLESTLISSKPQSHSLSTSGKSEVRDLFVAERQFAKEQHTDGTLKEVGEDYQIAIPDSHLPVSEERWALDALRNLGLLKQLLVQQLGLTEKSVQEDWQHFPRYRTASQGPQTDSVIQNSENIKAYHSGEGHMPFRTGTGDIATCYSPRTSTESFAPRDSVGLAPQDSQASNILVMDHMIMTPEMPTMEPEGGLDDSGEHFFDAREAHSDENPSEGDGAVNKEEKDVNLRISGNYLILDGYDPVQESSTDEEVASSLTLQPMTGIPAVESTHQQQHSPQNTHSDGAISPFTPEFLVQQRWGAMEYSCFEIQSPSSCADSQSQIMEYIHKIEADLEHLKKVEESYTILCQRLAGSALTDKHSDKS
T8 sequence (Q12959 whole entry, the tested form may be a part): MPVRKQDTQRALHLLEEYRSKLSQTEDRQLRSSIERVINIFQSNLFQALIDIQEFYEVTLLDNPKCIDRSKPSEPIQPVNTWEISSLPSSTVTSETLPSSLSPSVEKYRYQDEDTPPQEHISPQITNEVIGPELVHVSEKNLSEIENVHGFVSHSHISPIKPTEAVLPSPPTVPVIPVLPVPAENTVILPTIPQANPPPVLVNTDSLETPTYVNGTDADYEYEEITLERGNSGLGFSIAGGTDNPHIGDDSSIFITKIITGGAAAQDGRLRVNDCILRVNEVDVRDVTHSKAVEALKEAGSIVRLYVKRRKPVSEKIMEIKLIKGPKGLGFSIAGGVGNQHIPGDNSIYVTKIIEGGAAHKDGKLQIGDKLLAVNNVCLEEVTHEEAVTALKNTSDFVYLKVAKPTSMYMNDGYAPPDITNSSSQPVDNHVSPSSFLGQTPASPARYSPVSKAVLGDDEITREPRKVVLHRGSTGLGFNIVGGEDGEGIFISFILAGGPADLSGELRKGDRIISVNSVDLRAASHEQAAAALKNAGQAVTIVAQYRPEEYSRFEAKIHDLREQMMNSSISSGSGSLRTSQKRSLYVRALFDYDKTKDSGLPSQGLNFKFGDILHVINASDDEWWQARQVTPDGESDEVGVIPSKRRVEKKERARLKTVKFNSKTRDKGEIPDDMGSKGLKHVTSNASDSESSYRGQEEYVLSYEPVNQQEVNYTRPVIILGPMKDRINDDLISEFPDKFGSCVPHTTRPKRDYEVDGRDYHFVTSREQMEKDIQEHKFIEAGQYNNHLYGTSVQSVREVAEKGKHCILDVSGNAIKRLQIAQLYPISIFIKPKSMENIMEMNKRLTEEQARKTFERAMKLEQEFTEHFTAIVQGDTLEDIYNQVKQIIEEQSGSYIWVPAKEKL
T6 sequence (Q15700 whole entry, the tested form may be a part): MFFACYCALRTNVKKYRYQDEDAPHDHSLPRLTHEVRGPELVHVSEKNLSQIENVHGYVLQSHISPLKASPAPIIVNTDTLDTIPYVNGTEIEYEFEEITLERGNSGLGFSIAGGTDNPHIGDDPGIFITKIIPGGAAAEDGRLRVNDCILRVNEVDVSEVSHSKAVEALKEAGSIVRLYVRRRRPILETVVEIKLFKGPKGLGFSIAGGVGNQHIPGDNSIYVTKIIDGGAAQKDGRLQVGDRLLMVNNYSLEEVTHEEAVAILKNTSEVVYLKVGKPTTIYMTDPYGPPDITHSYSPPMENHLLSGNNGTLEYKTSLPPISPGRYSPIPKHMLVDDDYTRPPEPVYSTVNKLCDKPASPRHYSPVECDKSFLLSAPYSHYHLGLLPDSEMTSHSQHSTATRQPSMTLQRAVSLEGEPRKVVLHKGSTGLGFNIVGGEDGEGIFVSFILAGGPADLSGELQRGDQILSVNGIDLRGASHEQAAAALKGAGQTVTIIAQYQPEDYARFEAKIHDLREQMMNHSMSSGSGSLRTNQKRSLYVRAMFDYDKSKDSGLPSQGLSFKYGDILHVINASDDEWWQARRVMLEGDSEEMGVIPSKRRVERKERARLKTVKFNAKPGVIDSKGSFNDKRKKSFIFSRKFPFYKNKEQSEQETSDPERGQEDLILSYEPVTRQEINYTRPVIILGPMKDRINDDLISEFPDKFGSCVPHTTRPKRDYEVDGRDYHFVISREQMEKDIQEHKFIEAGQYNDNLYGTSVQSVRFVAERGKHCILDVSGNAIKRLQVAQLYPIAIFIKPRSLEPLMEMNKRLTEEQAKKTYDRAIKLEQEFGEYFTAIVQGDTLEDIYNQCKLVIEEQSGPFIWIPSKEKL

Row | Molecule | Classification ([1]; PDZ Domain 3) | Classification ([1]; PDZ Domain 5) | Classification ([1]; PDZ Domain 8) | Classification [2] | Classification [3] | Classification ([5]; PDZ Domain 1) | Classification ([5]; PDZ Domain 1, 2) | Classification ([5]; PDZ Domain 2) | Classification ([5]; PDZ Domain 3) | Classification ([6]; PDZ DLG2, PDZ Domain 1) | Classification ([6]; PDZ DLG2, PDZ Domain 2) | Classification ([7]; PDZ PSD95, PDZ Domain 1) | Classification ([7]; PDZ PSD95, PDZ Domain 1, 2, 3) | Classification ([7]; PDZ PSD95, PDZ Domain 3) | Classification ([8]; PDZ DLG1, PDZ Domain 1) | Classification ([8]; PDZ DLG1, PDZ Domain 1, 2) | Classification ([8]; PDZ DLG1, PDZ Domain 2) | Classification [9] | also measured
1 | CC[C@H](C)[C@H](NC(=O)[C@H](CCCCN)NC(=O)[C@@H](NC(=O)[C@H](CO)NC(=O)[C@@H]1CCCN1C(=O)[C@H](Cc1ccccc1)NC(=O)[C@@H](NC(=O)[C@@H](NC(=O)[C@H](CCCNC(=N)N)NC(=O)[C@H](CCC(=O)O)NC(=O)[C@H](CC(C)C)NC(=O)[C@H](CC(C)C)NC(=O)[C@H](CC(C)C)NC(=O)[C@@H](NC(=O)CNC(=O)[C@@H](NC(=O)CCCC[C@@H]1SC[C@@H]2NC(=O)N[C@@H]21)C(C)C)[C@@H](C)O)C(C)C)[C@@H](C)CC)C(C)C)C(=O)N[C@@H](C)C(=O)N[C@H](C(=O)N[C@@H](CC(C)C)C(=O)N[C@H](C(=O)O)C(C)C)[C@@H](C)O [Adenovirus E4 Type9] | – | – | – | – | – | – | – | – | – | – | – | – | – | – | – | – | – | – | Classification ([1]; PDZ Domain 8, PL peptide 10 uM): 2 (A450 nm 1-2); Classification ([2]; Protein Optimal Conc 5): 5 (A450 nm of 4 more than 2× repeated); Classification ([3]; PL peptide 10 uM): 1 (A450 nm 0-1); Classification ([4]; PDZ KIAA0300, PDZ Domain 1, PL peptide 10 uM): 1 (A450 nm 0-1); Classification ([5]; PDZ Domain 1, 2, PL peptide 10 uM): 5 (A450 nm of 4 more than 2× repeated); Classification ([5]; PDZ Domain 1, PL peptide 10 uM): 1 (A450 nm 0-1); Classification ([5]; PDZ Domain 2, Protein Optimal Conc 5): 5 (A450 nm of 4 more than 2× repeated); Classification ([6]; PDZ DLG2, PDZ Domain 2, Protein Optimal Conc 0.5): 5 (A450 nm of 4 more than 2× repeated); Classification ([7]; PDZ PSD95, PDZ Domain 1, 2, 3, PL peptide 10 uM): 5 (A450 nm of 4 more than 2× repeated); Classification ([7]; PDZ PSD95, PDZ Domain 1, Protein Optimal Conc 5): 4 (A450 nm 3-4); Classification ([8]; PDZ DLG1, PDZ Domain 1, 2, PL peptide 10 uM): 5 (A450 nm of 4 more than 2× repeated); Classification ([8]; PDZ DLG1, PDZ Domain 1, Protein Optimal Conc 0.5): 4 (A450 nm 3-4); Classification ([8]; PDZ DLG1, PDZ Domain 2, Protein Optimal Conc 0.3): 5 (A450 nm of 4 more than 2× repeated)
2 | CSCC[C@H](NC(=O)[C@H](C)NC(=O)[C@H](CCCNC(=N)N)NC(=O)CNC(=O)[C@@H](NC(=O)[C@H](Cc1c[nH]c2ccccc12)NC(=O)[C@H](CCCNC(=N)N)NC(=O)CNC(=O)CCCC[C@@H]1SC[C@@H]2NC(=O)N[C@@H]21)[C@@H](C)O)C(=O)N[C@@H](CO)C(=O)N[C@@H](C)C(=O)N[C@@H](Cc1c[nH]c2ccccc12)C(=O)N[C@@H](CCCCN)C(=O)N1CCC[C@H]1C(=O)N[C@H](C(=O)N[C@@H](CCCNC(=N)N)C(=O)N[C@@H](CCCNC(=N)N)C(=O)N[C@@H](CCC(=O)O)C(=O)N[C@H](C(=O)N[C@@H](CCC(=O)O)C(=O)N[C@H](C(=O)O)C(C)C)[C@@H](C)O)[C@@H](C)O [HPV E6 #35 (modified)] (Biotin-GRWTGRAMSAWKPTRRETEV-OH; C-terminus assumed) | 1 (A450 nm 0-1) | 1 (A450 nm 0-1) | 4 (A450 nm 3-4) | 5 (A450 nm of 4 more than 2× repeated) | 2 (A450 nm 1-2) | 5 (A450 nm of 4 more than 2× repeated) | 5 (A450 nm of 4 more than 2× repeated) | 5 (A450 nm of 4 more than 2× repeated) | 5 (A450 nm of 4 more than 2× repeated) | 5 (A450 nm of 4 more than 2× repeated) | 5 (A450 nm of 4 more than 2× repeated) | 5 (A450 nm of 4 more than 2× repeated) | 5 (A450 nm of 4 more than 2× repeated) | 5 (A450 nm of 4 more than 2× repeated) | 5 (A450 nm of 4 more than 2× repeated) | 5 (A450 nm of 4 more than 2× repeated) | 5 (A450 nm of 4 more than 2× repeated) | 5 (A450 nm of 4 more than 2× repeated) | Classification ([4]; PDZ AIPC, PDZ Domain 1, PL peptide 10 uM, Protein Optimal Conc 5): 1 (A450 nm 0-1); Classification ([8]; PDZ DLG1, PDZ Domain 3): 3 (A450 nm 2-3)
3 | TQGFPGPATWRRISSLESEV | 2 (A450 nm 1-2) | 1 (A450 nm 0-1) | 1 (A450 nm 0-1) | 5 (A450 nm of 4 more than 2× repeated) | 1 (A450 nm 0-1) | 2 (A450 nm 1-2) | 5 (A450 nm of 4 more than 2× repeated) | 5 (A450 nm of 4 more than 2× repeated) | 1 (A450 nm 0-1) | 4 (A450 nm 3-4) | 5 (A450 nm of 4 more than 2× repeated) | 5 (A450 nm of 4 more than 2× repeated) | 5 (A450 nm of 4 more than 2× repeated) | 2 (A450 nm 1-2) | 5 (A450 nm of 4 more than 2× repeated) | 5 (A450 nm of 4 more than 2× repeated) | 5 (A450 nm of 4 more than 2× repeated) | 5 (A450 nm of 4 more than 2× repeated) | Classification ([4]; PDZ AIPC, PDZ Domain 1): 3 (A450 nm 2-3)

Source: patent US20050282743A1, “Molecular interactions in cells” (Arbor Vita Corporation, priority 2001, published 2005)
